Read-outs that look alike come from different tables or passages of the source.
Tested on: E. coli lactose permease expression cassette mutant strains
Experiment: Chloramphenicol resistance / MIC of strains with lactose permease translationally coupled to chloramphenicol resistance gene
Type: cell-based, Escherichia coli
Conditions: for MIC: Escherichia coli
Description: Two strains were constructed in which lactose permease was knockout out from the genome. In both strains a pSC101 plasmid containing a kanamycin resistance gene was transformed, with the difference that one of the plasmids contained a constitutively expressed lactose permease as described in Example 1 and 2, resulting in a reference strain MG1655ΔlacY pSC101_kan and the lacY_cat translational coupled strain MG1655ΔlacY pSC101_kan_lacYsynthetic_cat as described in Example 4 and FIG. 5. Both strains were grown in a minimal medium as described above at different chloramphenicol concentrations (between 0 and 30 mg/l).
This method is however limited by the expression of the beta galactosidase gene which becomes the rate limiting step for growth. Therefore, the expression of the lactose permease gene was measured via the above described translational coupling system described above. The minimal inhibition concentration (MIC) for chloramphenicol is indicative for the expression of the lactose permease gene and this was determined for each of the cassettes. The lowest MIC that still resulted into the same growth rate compared to the wild type was used as an indicator for the expression of the wild type lactose permease expression.

O=C(N[C@H](CO)[C@H](O)c1ccc([N+](=O)[O-])cc1)C(Cl)Cl [chloramphenicol]
MIC (read-out: minimal inhibition concentration (MIC), cassettes with the lowest MIC that have the same growth rate as the wild type strain): ~20 µg/mL | MIC (read-out: minimal inhibition concentration (MIC), mutant strains with a slightly lower growth rate): 15 to 20 µg/mL | MIC (read-out: minimal inhibition concentration (MIC), mutant strains with equal or higher growth rate): 20 to 80 µg/mL | growth inhibition of reference strain MG1655ΔlacY pSC101_kan versus lacY_cat coupled strain (chloramphenicol 0 to 30 mg/l, minimal medium, 48 and 92 hours): inhibited at a lower chloramphenicol concentration than the mutant lacY_cat translational coupled strain

Reference: patent publication US10858684B2, “Mutant microorganisms resistant to lactose killing” (Inbiose N.V., priority 2014, dated 2020)
